Laboratory results as given in ChEMBL document CHEMBL1795295, “Synthesis and antimycobacterial activity of highly functionalized tetrahydro-4(1H)-pyridinones” (2011).
In brackets after ≈: the same amount, converted by molar mass.

System: Mycobacterium tuberculosis
Test: Antimycobacterial activity against Mycobacterium tuberculosis H37Rv by agar dilution method
Assay type: functional

| SMILES | MIC |
| --- | --- |
| O=C1C[C@H](c2ccc(Cl)cc2)N[C@H](c2ccc(Cl)cc2)[C@H]1c1ccccc1 | 31.5 µM (≈ 12.5 µg/mL) |
| Cc1ccc([C@H]2N[C@@H](c3ccc(C)cc3)CC(=O)[C@@H]2c2ccccc2)cc1 | 70.3 µM (≈ 25 µg/mL) |
| O=C1C[C@H](c2ccc(F)cc2)N[C@H](c2ccc(F)cc2)[C@H]1c1ccccc1 | 34.4 µM (≈ 12.5 µg/mL) |
| O=C1C[C@H](c2ccccc2Cl)N[C@H](c2ccccc2Cl)[C@H]1c1ccccc1 | 31.5 µM (≈ 12.5 µg/mL) |
| Cc1ccccc1[C@H]1N[C@@H](c2ccccc2C)CC(=O)[C@@H]1c1ccccc1 | 70.3 µM (≈ 25 µg/mL) |
| COc1ccccc1[C@H]1N[C@@H](c2ccccc2OC)CC(=O)[C@@H]1c1ccccc1 | 64.5 µM (≈ 25 µg/mL) |
| O=C1[C@H](c2ccccc2)[C@@H](c2ccccc2)N[C@@H](c2ccccc2)[C@@H]1c1ccccc1 | 62 µM (≈ 25 µg/mL) |
| O=C1[C@H](c2ccccc2)[C@@H](c2ccc(Cl)cc2)N[C@@H](c2ccc(Cl)cc2)[C@@H]1c1ccccc1 | 13.2 µM (≈ 6.25 µg/mL) |
| Cc1ccc([C@H]2N[C@@H](c3ccc(C)cc3)[C@H](c3ccccc3)C(=O)[C@@H]2c2ccccc2)cc1 | 29 µM (≈ 12.5 µg/mL) |
| COc1ccc([C@H]2N[C@@H](c3ccc(OC)cc3)[C@H](c3ccccc3)C(=O)[C@@H]2c2ccccc2)cc1 | 27 µM (≈ 12.5 µg/mL) |
| O=C1[C@H](c2ccccc2)[C@@H](c2ccc(F)cc2)N[C@@H](c2ccc(F)cc2)[C@@H]1c1ccccc1 | 7.12 µM (≈ 3.13 µg/mL) |
| O=C1[C@H](c2ccccc2)[C@@H](c2ccccc2Cl)N[C@@H](c2ccccc2Cl)[C@@H]1c1ccccc1 | 13.2 µM (≈ 6.25 µg/mL) |
| Cc1ccccc1[C@H]1N[C@@H](c2ccccc2C)[C@H](c2ccccc2)C(=O)[C@@H]1c1ccccc1 | 29 µM (≈ 12.5 µg/mL) |
| COc1ccccc1[C@H]1N[C@@H](c2ccccc2OC)[C@H](c2ccccc2)C(=O)[C@@H]1c1ccccc1 | 27 µM (≈ 12.5 µg/mL) |
| O=NN1C(c2ccccc2)CC(=O)C(c2ccccc2)C1c1ccccc1 (stereo not drawn) | 17.5 µM (≈ 6.25 µg/mL) |
| O=NN1C(c2ccc(Cl)cc2)CC(=O)C(c2ccccc2)C1c1ccc(Cl)cc1 (stereo not drawn) | 7.35 µM (≈ 3.13 µg/mL) |
| Cc1ccc(C2CC(=O)C(c3ccccc3)C(c3ccc(C)cc3)N2N=O)cc1 (stereo not drawn) | 8.14 µM (≈ 3.13 µg/mL) |
| O=NN1C(c2ccc(F)cc2)CC(=O)C(c2ccccc2)C1c1ccc(F)cc1 (stereo not drawn) | 3.97 µM (≈ 1.56 µg/mL) |
| Cc1ccccc1C1CC(=O)C(c2ccccc2)C(c2ccccc2C)N1N=O (stereo not drawn) | 8.14 µM (≈ 3.13 µg/mL) |

| SMILES | MIC |
| --- | --- |
| O=NN1C(c2ccccc2)C(c2ccccc2)C(=O)C(c2ccccc2)C1c1ccccc1 (stereo not drawn) | 14.4 µM (≈ 6.25 µg/mL) |
| O=NN1C(c2ccc(Cl)cc2)C(c2ccccc2)C(=O)C(c2ccccc2)C1c1ccc(Cl)cc1 (stereo not drawn) | 3.11 µM (≈ 1.56 µg/mL) |
| Cc1ccc(C2C(c3ccccc3)C(=O)C(c3ccccc3)C(c3ccc(C)cc3)N2N=O)cc1 (stereo not drawn) | 6.79 µM (≈ 3.13 µg/mL) |
| COc1ccc(C2C(c3ccccc3)C(=O)C(c3ccccc3)C(c3ccc(OC)cc3)N2N=O)cc1 (stereo not drawn) | 12.7 µM (≈ 6.25 µg/mL) |
| O=NN1C(c2ccccc2Cl)C(c2ccccc2)C(=O)C(c2ccccc2)C1c1ccccc1Cl (stereo not drawn) | 3.11 µM (≈ 1.56 µg/mL) |
| Cc1ccccc1C1C(c2ccccc2)C(=O)C(c2ccccc2)C(c2ccccc2C)N1N=O (stereo not drawn) | 6.79 µM (≈ 3.13 µg/mL) |
| COc1ccccc1C1C(c2ccccc2)C(=O)C(c2ccccc2)C(c2ccccc2OC)N1N=O (stereo not drawn) | 6.35 µM (≈ 3.13 µg/mL) |
| N#CN1C(c2ccccc2)CC(=O)C(c2ccccc2)C1c1ccccc1 (stereo not drawn) | 70.9 µM (≈ 25 µg/mL) |
| N#CN1C(c2ccc(Cl)cc2)CC(=O)C(c2ccccc2)C1c1ccc(Cl)cc1 (stereo not drawn) | 29.7 µM (≈ 12.5 µg/mL) |
| Cc1ccc(C2CC(=O)C(c3ccccc3)C(c3ccc(C)cc3)N2C#N)cc1 (stereo not drawn) | 65.7 µM (≈ 25 µg/mL) |
| COc1ccc(C2CC(=O)C(c3ccccc3)C(c3ccc(OC)cc3)N2C#N)cc1 (stereo not drawn) | 30.3 µM (≈ 12.5 µg/mL) |
| N#CN1C(c2ccc(F)cc2)CC(=O)C(c2ccccc2)C1c1ccc(F)cc1 (stereo not drawn) | 16.1 µM (≈ 6.25 µg/mL) |
| N#CN1C(c2ccccc2)C(c2ccccc2)C(=O)C(c2ccccc2)C1c1ccccc1 (stereo not drawn) | 58.3 µM (≈ 25 µg/mL) |
| N#CN1C(c2ccc(Cl)cc2)C(c2ccccc2)C(=O)C(c2ccccc2)C1c1ccc(Cl)cc1 (stereo not drawn) | 25.1 µM (≈ 12.5 µg/mL) |
| N#CN1C(c2ccccc2Cl)C(c2ccccc2)C(=O)C(c2ccccc2)C1c1ccccc1Cl (stereo not drawn) | 12.6 µM (≈ 6.25 µg/mL) |
| Cc1ccccc1C1C(c2ccccc2)C(=O)C(c2ccccc2)C(c2ccccc2C)N1C#N (stereo not drawn) | 27.4 µM (≈ 12.5 µg/mL) |
| CC[C@@H](CO)NCCN[C@@H](CC)CO [ETHAMBUTOL] | 7.6 µM (≈ 1.55 µg/mL) |
| NNC(=O)c1ccncc1 [ISONIAZID] | 0.4 µM (≈ 0.0549 µg/mL) |
| NC(=O)c1cnccn1 [PYRAZINAMIDE] | 50.8 µM (≈ 6.25 µg/mL) |
